Assay results published in patent US11040987B2 (TenNor Therapeutics Limited, priority 2019, dated 2021).
pIC50: −log10 of the molar value. ≈ marks a conversion by molar mass, not a printed value. Where two headings read alike, the source gives them in different places.

How the values were obtained:
[1] = tested on: A.b TNP 41704; assay: MIC against A. baumannii clinical isolates, alone and in combination with antibiotics; assay type: cell-based; conditions: for MIC: Acinetobacter baumannii
[2] = tested on: A. baumannii ATCC 19606; assay: MIC determination, broth microdilution, ESKAPE panel; assay type: cell-based; conditions: Acinetobacter baumannii
Outline: (§1)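 Broth microdilution per CLSI recommendations with minor modification; inoculum […]. Reference strains from the ESKAPE panel were tested.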

[3] = tested on: E. faecium ATCC 700221; assay: as above; assay type: cell-based; conditions: Enterococcus faecium
Outline: as §1

[4] = tested on: S. aureus ATCC 29213; assay: as above; assay type: cell-based; conditions: Staphylococcus aureus
Outline: as §1

[5] = tested on: Escherichia coli ATCC 25922; assay: as above; assay type: cell-based
Outline: as §1

[6] = tested on: K. pneumoniae ATCC 43816; assay: as above; assay type: cell-based; conditions: Klebsiella pneumoniae
Outline: as §1

[7] = tested on: P. aeruginosa ATCC 27853; assay: as above; assay type: cell-based; conditions: Pseudomonas aeruginosa
Outline: as §1

[8] = tested on: A.b TNP 41708; assay: MIC against A. baumannii clinical isolates, alone and in combination with antibiotics; assay type: cell-based; conditions: for MIC: Acinetobacter baumannii, TNP41708, read-out: MIC A.b TNP 41708
Outline: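 Inoculum set at […]. MICs come from broth microdilution run according to CLSI, minor modifications applied.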

[9] = target: T1, AmpC_PA (Pseudomonas aeruginosa, UniProt P24735); assay: β-lactamase inhibition, spectrophotometric assay of nitrocefin hydrolysis; assay type: biochemical, P. aeruginosa
T1 construct: made in house
T1 sequence (P24735 27-397): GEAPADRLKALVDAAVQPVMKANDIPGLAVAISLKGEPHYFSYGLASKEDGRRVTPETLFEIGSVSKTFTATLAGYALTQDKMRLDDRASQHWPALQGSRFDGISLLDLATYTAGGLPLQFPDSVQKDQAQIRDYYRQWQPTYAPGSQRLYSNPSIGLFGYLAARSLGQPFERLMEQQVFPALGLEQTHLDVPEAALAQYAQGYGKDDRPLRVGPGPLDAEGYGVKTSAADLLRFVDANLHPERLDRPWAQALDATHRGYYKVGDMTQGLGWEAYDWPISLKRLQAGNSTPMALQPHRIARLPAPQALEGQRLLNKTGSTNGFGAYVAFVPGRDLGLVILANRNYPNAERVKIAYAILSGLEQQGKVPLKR
Excerpt: (§2) Hydrolytic inactivation of the β-lactam antibiotics by β-lactamases is the most widespread drug resistant mechanism and the most challenge clinically among Gram-negative bacterial pathogens. Based on the amino acid sequences, the β-lactamases are grouped into four classes (Ambler classification), of which A, C and D are serine hydrolases and B encompasses metallo-β-lactamases. The IC50 of selected derivatives disclosed herein (identified with reference to example number) plus six reference β-lactam or β-lactamase inhibitors were determined against 7 representative β-lactamases of various classes in a standard spectrophotometric assay of nitrocefin hydrolysis. The assay is performed in 384-well plate. The seven recombinant β-lactamases AmpC_AB (from A. baumannii), AmpC_PA (from P. aeruginosa), KPC-2, NDM-1, IMP-1, VIM-1 and OXA 24/40) are expressed and purified. The reaction buffer for class A, C and D enzymes is 100 mM Na2HPO4—KH2PO4 (pH 7.1) plus 0.005% Tween-20, and for class B enzymes 10 μM ZnSO4 is added. […] The 50 μL of reaction solution composed of 2 pM of β-lactamase, 200 μM of nitrocefin and series of 3-fold dilutions of test or control compounds are added by Cybio SELMA system into 384-plate and incubated in dark at 25° C. for 2 hours. The OD490 is read in MC SpectraMax Plus384 plate reader.

[10] = target: T2, OXA 24/40 (Acinetobacter baumannii, UniProt Q8RLA6); assay: as above; assay type: biochemical
T2 construct: made in house
T2 sequence (Q8RLA6 22-275): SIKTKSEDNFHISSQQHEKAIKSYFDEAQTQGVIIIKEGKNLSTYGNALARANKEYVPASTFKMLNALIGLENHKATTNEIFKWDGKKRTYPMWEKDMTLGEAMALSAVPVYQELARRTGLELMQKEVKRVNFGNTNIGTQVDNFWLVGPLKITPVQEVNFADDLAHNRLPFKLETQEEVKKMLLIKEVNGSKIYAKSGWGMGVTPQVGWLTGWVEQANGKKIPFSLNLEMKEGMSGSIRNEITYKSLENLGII
Excerpt: as §2

[11] = target: T3, KPC-2 (Klebsiella pneumoniae, UniProt Q9F663); assay: as above; assay type: biochemical
T3 construct: made in house
T3 sequence (Q9F663 25-293, looked up, species assumed): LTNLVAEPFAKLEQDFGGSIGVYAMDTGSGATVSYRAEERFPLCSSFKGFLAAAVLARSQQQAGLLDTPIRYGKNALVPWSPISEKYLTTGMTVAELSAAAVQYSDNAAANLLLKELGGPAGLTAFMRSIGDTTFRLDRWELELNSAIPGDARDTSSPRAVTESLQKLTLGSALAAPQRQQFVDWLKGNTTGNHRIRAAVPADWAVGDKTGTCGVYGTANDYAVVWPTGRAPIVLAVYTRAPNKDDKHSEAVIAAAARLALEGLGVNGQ
Excerpt: as §2

[12] = target: T4, VIM-1 (Pseudomonas aeruginosa, UniProt A0A0F7KYQ8); assay: as above; assay type: biochemical
T4 construct: made in house
Excerpt: as §2

[13] = target: T5, NDM-1 (Klebsiella pneumoniae, UniProt C7C422); assay: as above; assay type: biochemical
T5 construct: made in house
T5 sequence (C7C422 29-270, looked up, species assumed): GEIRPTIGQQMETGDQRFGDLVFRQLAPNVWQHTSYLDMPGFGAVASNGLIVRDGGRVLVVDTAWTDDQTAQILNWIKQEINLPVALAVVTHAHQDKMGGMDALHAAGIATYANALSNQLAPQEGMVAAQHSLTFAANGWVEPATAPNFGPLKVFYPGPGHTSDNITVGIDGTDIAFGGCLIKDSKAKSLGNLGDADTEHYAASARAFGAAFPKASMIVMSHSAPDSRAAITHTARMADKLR
Excerpt: as §2

[14] = target: T6, IMP-1 (Serratia marcescens, UniProt P52699); assay: as above; assay type: biochemical
T6 construct: made in house
T6 sequence (P52699 19-246, looked up, species assumed): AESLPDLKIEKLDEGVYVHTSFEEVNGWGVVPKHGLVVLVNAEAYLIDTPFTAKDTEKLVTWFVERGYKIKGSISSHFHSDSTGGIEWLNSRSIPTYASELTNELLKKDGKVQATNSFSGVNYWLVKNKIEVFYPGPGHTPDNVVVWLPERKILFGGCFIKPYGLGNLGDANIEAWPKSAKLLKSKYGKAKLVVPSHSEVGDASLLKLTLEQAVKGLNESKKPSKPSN
Excerpt: as §2

[15] = target: AmpC_AB (Acinetobacter baumannii, UniProt Q6DRA1); assay: as above; assay type: biochemical
Excerpt: as §2

[16] = tested on: A.b TNP 41709; assay: MIC against A. baumannii clinical isolates, alone and in combination with antibiotics; assay type: cell-based; conditions: for MIC: Acinetobacter baumannii
[17] = TNP41704, Compounds alone, read-out: MIC A.b TNP 41704
[18] = ATCC19606, iron-depleted cation-adjusted Mueller-Hinton broth, 2,2-dipyridyl 160 μM, 37° C., 18-20 hours, read-out: MIC A. baumannii ATCC 19606
[19] = ATCC700221, iron-depleted cation-adjusted Mueller-Hinton broth, 2,2-dipyridyl 160 μM, 37° C., 18-20 hours, read-out: MIC E. faecium ATCC 700221
[20] = ATCC29213, iron-depleted cation-adjusted Mueller-Hinton broth, 2,2-dipyridyl 160 μM, 37° C., 18-20 hours, read-out: MIC S. aureus ATCC 29213
[21] = ATCC25922, iron-depleted cation-adjusted Mueller-Hinton broth, 2,2-dipyridyl 160 μM, 37° C., 18-20 hours, read-out: MIC E. coli ATCC 25922
[22] = ATCC43816, iron-depleted cation-adjusted Mueller-Hinton broth, 2,2-dipyridyl 160 μM, 37° C., 18-20 hours, read-out: MIC K. pneumoniae ATCC 43816
[23] = ATCC27853, iron-depleted cation-adjusted Mueller-Hinton broth, 2,2-dipyridyl 160 μM, 37° C., 18-20 hours, read-out: MIC P. aeruginosa ATCC 27853
[24] = class A β-lactamase, 200 μM nitrocefin, 25° C., 2 hours, read-out: IC50 KPC-2
[25] = class B β-lactamase, 10 μM ZnSO4, 200 μM nitrocefin, 25° C., 2 hours, read-out: IC50 VIM-1
[26] = class B β-lactamase, 10 μM ZnSO4, 200 μM nitrocefin, 25° C., 2 hours, read-out: IC50 NDM-1
[27] = class B β-lactamase, 10 μM ZnSO4, 200 μM nitrocefin, 25° C., 2 hours, read-out: IC50 IMP-1
[28] = Class C β-lactamase, 200 μM nitrocefin, 25° C., 2 hours, read-out: IC50 AmpC_AB
[29] = TNP41709, Compounds alone, read-out: MIC A.b TNP 41709

Structure (SMILES)	MIC [1, 17] [µg/mL]	MIC A.b TNP 41704 ([1]; Compounds + meropenem (1:1)) [µg/mL]	MIC A.b TNP 41704 ([1]; Compounds + sulbactam (1:1)) [µg/mL]	MIC [2, 18] [µg/mL]	MIC [3, 19] [µg/mL]	MIC [4, 20] [µg/mL]	MIC [5, 21] [µg/mL]	MIC [6, 22] [µg/mL]	MIC [7, 23] [µg/mL]	MIC [8] [µg/mL]	MIC A.b TNP 41708 ([8]; Compounds + meropenem (1:1)) [µg/mL]	MIC A.b TNP 41708 ([8]; Compounds + sulbactam (1:1)) [µg/mL]	pIC50 [9]	pIC50 [10]	pIC50 [11, 24]	pIC50 [12, 25]	pIC50 [13, 26]	pIC50 [14, 27]	pIC50 [15, 28]	MIC [16, 29] [µg/mL]	also measured
C[C@]1(/C=N/NC(=O)c2ccc(O)c(O)c2)[C@H](C(=O)O)N2C(=O)C[C@H]2S1(=O)=O [Example 5, (2S,3R,5R)-3-((E)-(2-(3,4-dihydroxybenzoyl)hydrazono)methyl)-3-methyl-7-oxo-4-thia-1-azabicyclo[3.2.0]heptane-2-carboxylic acid 4,4-dioxide]	> 128	4	4	4 (≈ 10.1 µM)	> 128	128 (≈ 322 µM)	64 (≈ 161 µM)	32 (≈ 80.5 µM)	> 128	> 128	4	8	5.77	4.94	< 3.70	< 3.70	< 3.70	< 3.70	5.98	32	MIC A.b TNP 41709 ([16]; Compounds + meropenem (1:1)): 2 µg/mL; MIC A.b TNP 41709 ([16]; Compounds + sulbactam (1:1)): 4 µg/mL
C[C@]1(/C=N/NC(=O)CNC(=O)c2ccc(O)c(O)c2)[C@H](C(=O)O)N2C(=O)C[C@H]2S1(=O)=O [Example 64, (2S,3R,5R)-3-((E)-(2-(2-(3,4-dihydroxybenzamido)acetyl)hydrazono)methyl)-3-methyl-7-oxo-4-thia-1-azabicyclo[3.2.0]heptane-2-carboxylic acid 4,4-dioxide]	> 128	2	4	8 (≈ 17.6 µM)	> 128	64 (≈ 141 µM)	> 128	128 (≈ 282 µM)	> 128	> 128	4	8	6.19	5.24	< 3.70	< 3.70	< 3.70	< 3.70	6.32	> 128	MIC A.b TNP 41709 ([16]; Compounds + meropenem (1:1)): 2 µg/mL; MIC A.b TNP 41709 ([16]; Compounds + sulbactam (1:1)): 4 µg/mL
CC1(C)[C@H](C(=O)O)N2C(=O)C[C@H]2S1(=O)=O [Sulbactam, reference compound]										32			4.99	< 3.70							MIC ([1]; TNP41704, read-out: MIC A.b TNP 41704): 8 µg/mL; MIC ([2]; ATCC19606, read-out: MIC A. baumannii ATCC 19606): 0.5 µg/mL (≈ 2.14 µM); MIC ([3]; ATCC700221, read-out: MIC E. faecium ATCC 700221): > 128 µg/mL; MIC ([4]; ATCC29213, read-out: MIC S. aureus ATCC 29213): > 128 µg/mL; MIC ([5]; ATCC25922, read-out: MIC E. coli ATCC 25922): 32 µg/mL (≈ 137 µM); MIC ([6]; ATCC43816, read-out: MIC K. pneumoniae ATCC 43816): 64 µg/mL (≈ 274 µM); MIC ([7]; ATCC27853, read-out: MIC P. aeruginosa ATCC 27853): > 128 µg/mL; pIC50 [11]: 4.27; pIC50 [12]: < 3.70; pIC50 [13]: < 3.70; pIC50 [14]: < 3.70; pIC50 [15]: 4.99; MIC ([16]; TNP41709, read-out: MIC A.b TNP 41709): 32 µg/mL
C[C@]1(/C=N/NC(=O)C2CCN(C(=O)c3ccc(O)c(O)c3Cl)C2)[C@H](C(=O)O)N2C(=O)C[C@H]2S1(=O)=O (stereo partly drawn) [Example 38, (2S,3R,5R)-3-((E)-(2-(1-(2-chloro-3,4-dihydroxybenzoyl)pyrrolidine-3-carbonyl)hydrazono)methyl)-3-methyl-7-oxo-4-thia-1-azabicyclo[3.2.0]heptane-2-carboxylic acid 4,4-dioxide]	> 128	4	4	8 (≈ 15.1 µM)	> 128	128 (≈ 242 µM)	> 128	32 (≈ 60.5 µM)	> 128	> 128	4	8	5.62	5.23	< 3.70	< 3.70	< 3.70	< 3.70	5.12	> 128	MIC A.b TNP 41709 ([16]; Compounds + meropenem (1:1)): 2 µg/mL; MIC A.b TNP 41709 ([16]; Compounds + sulbactam (1:1)): 8 µg/mL
C[C@]1(COC(=O)NNC(=O)c2ccc(O)c(O)c2Cl)[C@H](C(=O)O)N2C(=O)C[C@H]2S1(=O)=O [Example 70, (2S,3R,5R)-3-(((2-(2-chloro-3,4-dihydroxybenzoyl)hydrazinecarbonyl)oxy)methyl)-3-methyl-7-oxo-4-thia-1-azabicyclo[3.2.0]heptane-2-carboxylic acid 4,4-dioxide]	8	8	4	1 (≈ 2.09 µM)	> 128	> 128	> 128	> 128	> 128	16	8	8	5.04	4.53	3.85	< 3.70	< 3.70	< 3.70	5.14	8	activity against KPC-2 of class A (in words) ([11]; text summary of Table 4): weak activity; MIC A.b TNP 41709 ([16]; Compounds + meropenem (1:1)): 4 µg/mL; MIC A.b TNP 41709 ([16]; Compounds + sulbactam (1:1)): 4 µg/mL
